The text below walks through data of a melting point compilation (Tetko et al.; mined from patent text by program, amines drawn as free bases though some values may be those of a salt).

Each structure is given as a SMILES string. Some results are limits rather than exact numbers.

Take `Cc1cncc2ncc(-c3ccccc3)cc12`: the melting point fell in the range of 135 to 138 °C. For `C[C@H]1CN(C(=O)OC(C)(C)C)S(=O)(=O)O1` the value was 123 to 125 °C. In the case of `O=C(O)c1cccc(OCc2ccc(Cl)c(Cl)c2)c1`, the melting point fell in the range of 173 to 174 °C. For `CC(=O)OC1CSC(Oc2ccc(-c3ccncc3)cc2F)C(OC(C)=O)C1OC(C)=O` (centres undefined) the value was 179 °C; for `CC(=O)N(C#N)Cc1ccc(CN(C#N)C(C)=O)cc1`, 160 to 162 °C; for `CCCCC(=O)N[C@H]1CC[C@H](CCN2CCC(c3cccc4c3CCO4)CC2)CC1`, 186 °C. `NC(=O)c1ccc(F)c2c1C=CCO2` came in with a melting point of 189 to 190 °C.

`O=C(NCc1ccc(Cl)cc1)c1cnc2c(F)cc(Br)cc2c1` displayed a melting point of 254 to 255 °C.

Regarding `O=C1N(CCCCN2CCN(c3cn(-c4ccc(F)cc4)c4ccccc34)CC2)CSC12CCCCC2`, the melting point fell in the range of 134 to 136 °C. As for `CCCS(=O)(=O)CC(=O)NNC(=O)N1Cc2ccccc2Oc2ccc(Cl)cc21`, the figure is 173 to 175 °C; as for `O=C(CC(=O)C1CC1)c1cccnc1`, 69 to 70 °C; as for `COc1cc(C(=O)O)ccc1Cc1cn(C)c2ccc(CC3CCN(C)C3=O)cc12` (centres undefined), 232 to 233 °C. In turn, `Cc1cc(C)c2ncc(NC(=O)Nc3cc(C(C)C)c(O)c(C(C)C)c3)c(-c3ccccc3Cl)c2c1` showed a melting point of 194 to 196 °C. The compound `COc1cc(C#N)ccc1-c1nc2cc3c(cc2[nH]1)NC(=O)C3(C)C` displayed a melting point of 304 to 312 °C. For `Cc1cc(-c2nnc3c4ccccc4c(OCc4cnc5ccccc5n4)nn23)no1` the value was 243 to 245 °C; for `CCCc1c(OCCCCCCCCOc2ccc(C(=O)c3cccc(C(=O)O)c3)cc2CCC(=O)O)ccc2c1OCCC2=O`, 112 to 117 °C. As for `Cc1oc(-c2ccccc2)nc1CCc1noc(CCl)n1`, the figure is 71 to 72 °C; as for `COc1cc(C(C)C)c2c(c1)S(=O)(=O)N(COC(=O)c1c(C)cc(C)cc1C)C2=O`, 137 to 138 °C; as for `CCN1CCC(c2n[nH]c3cc(F)ccc23)CC1`, 175 to 178 °C. As for `COc1cc(C=O)c(OC)c(C)c1C`, the figure is 69 to 71 °C. On to `CCCCCCCCC=CCCCCCCCCCCCC(=O)Nc1ccc(Cl)cc1C(=O)O`, for which the melting point is 159 to 162 °C. As for `COc1cc2nc(-c3n[nH]cc3NC(=O)N(C)C)[nH]c2cc1Cl`, the figure is greater than 300 °C. As for `CN1CC(CCN2C(=O)c3ccccc3C2=O)Oc2ncccc2C1=O` (centres undefined), the figure is 146 to 147 °C; as for `COc1ccc(N2C(=O)C(=O)c3cc(OC)ccc32)cc1`, 203 to 205 °C; as for `COC(=O)c1ccc(OC)nc1SCc1ccccc1`, 67 to 71 °C. `CCCc1c(OCCCCSc2nnc(SCC(=O)O)s2)ccc(C(C)=O)c1O`: the melting point is 123 to 124 °C. As for `CN1Cc2c(Cl)ncn2-c2ccccc2C1=S`, the figure is 198 °C. As for `COc1ccc(C#CCSc2ccc(OCC(=O)O)c(C)c2)cc1`, the figure is 143 to 144 °C; as for `CCC(C)c1ccc2c(c1)C1(O)C(=O)c3ccccc3C1(O)O2` (centres undefined), 134 to 136 °C. For the compound `COc1ccc(C(=O)c2cccs2)c2occ(C)c12`, the melting point was in the range of 131 to 134 °C. As for `O=C(N1CCC1)N1CC(Oc2cccc(C(F)(F)F)c2)C1`, the figure is 65 to 68 °C; as for `Cn1cc(C#N)c(=O)c(-c2cccc(C(F)(F)F)c2)c1`, 228 to 229 °C. Compound `CCOC(=O)[C@@H](NC(=O)[C@H](CC(C)C)NC(=O)OC(C)(C)C)[C@@H](C)O` returned a melting point of 67 to 70 °C. For `CC1(C(=O)c2c[nH]c3ncc(-c4cccc(N5CCOCC5)c4)nc23)CCCCC1` the value was 208 to 209 °C. In turn, `O=C(O)Cn1cc(Cc2nc3c(F)c(F)cc(F)c3s2)c2ccc(N3CCOCC3)cc21` came in with a melting point of 178 to 180 °C. In turn, `NC(=O)NC(=O)c1ccc2ccccc2c1` gave a melting point of 207 to 208 °C. For `O=C(Cl)c1cnc(O)c(Cl)c1` the value was greater than 250 °C; for `CC(C)(C)Sc1c(CC(C)(C)C(=O)O)n(Cc2ccc(Cl)cc2)c2ccc(OCc3ccc4ccccc4c3)cc12`, 213 to 214 °C. For the compound `CC(C)NCC(O)COc1ccc(OCCSCC2CC2)cc1` (centres undefined), the melting point was 86 °C. The compound `N#Cc1ccc(N(Cc2ccc(OS(N)(=O)=O)c(Cl)c2)n2cnnc2)cc1-c1ccoc1` had a melting point of 154 to 155 °C. For `Cc1nc2c(N)nc3ccccc3c2n1CCOCC#Cc1ccccc1` the value was 143 °C; for `CC(C)Oc1ccnc2[nH]ccc12`, 182 to 184 °C; for `CC(=O)NCC1OC(n2cc(C=CBr)c(=O)[nH]c2=O)CC1Cl` (centres undefined), 163 to 165 °C. In the case of `Cc1c(NC(=O)OCc2ccccc2)cccc1C(C[N+](=O)[O-])c1c[nH]c2ccc(N3CCOCC3)cc12` (centres undefined), the melting point is 140 °C. For `CC(C)(NCC(O)Cn1ccnc1)c1ccc(Cl)cc1` (centres undefined) the value was 89 to 91 °C. For `CCOC(=O)Cc1nc(-c2ccc(F)cc2)oc1C(C)C` the value was 59 to 60 °C; for `CCCOC(=O)CCc1cc(Cl)ccc1C(=O)CCCNC(C)=O`, 60 to 62 °C; for `COc1ccc(Cl)cc1C(=O)NCCc1ccc(CC(C)(C)C(=O)O)cc1`, 138 to 141 °C. For `Cc1ccc(NC(=O)c2cccc(C(F)(F)F)c2)cc1Br`, the melting point lay in the range of 153 to 155 °C. `NC(=O)c1cc(-c2ccc(F)cc2)sc1N`: the melting point fell in the range of 170 to 171 °C.

As for `Cc1cc(C(O)(COc2ccc(Cl)cc2)C(F)(F)F)ccc1NC(=O)c1cccc(I)c1C(=O)NC(C)C` (centres undefined), the melting point lay in the range of 90 to 95 °C.

`CCOC(=O)c1cc(OCC)c(OCC)cc1[N+](=O)[O-]` yielded a melting point of 53 to 54 °C. As for `CSC1c2ccccc2COc2ccc(C(=O)O)cc21` (centres undefined), the figure is 198 to 200 °C; as for `CCc1c(CC(=O)NCCCCCCNC(=O)Cc2ccc(OC)cc2)ccc(OC)c1OC`, 123 to 125 °C. Regarding `Cc1c(C(=O)Cl)ccc(S(C)(=O)=O)c1C1=NOCC1`, the melting point lay within 183 to 184 °C. For `COc1ccc2cc(CCCOCCCCCCNCC(O)c3ccc(O)c(NS(C)(=O)=O)c3)ccc2c1` (centres undefined) the value was 87 to 89 °C; for `COC(=O)c1ccc(C(=O)C(=O)c2ccc3c(c2)C(C)(C)CCC3(C)C)cc1`, 93 to 96 °C; for `CCCOc1cccnc1C(O)c1ccc(N)cc1` (centres undefined), 156 to 157 °C.

The compound `Cc1cc2c(-c3ccccc3)c(CO)n(C)c(=O)c2cc1C` gave a melting point of 209 to 210 °C. In the case of `COc1cc(Br)cc(C23CC4CC(CC(C4)C2)C3)c1O`, the melting point fell in the range of 157 to 159 °C. `CC=CC=C[C@@H]1C[C@H](CC(=O)O)OC2(CCCCC2)O1` (relative stereo): the melting point lay in the range of 144 to 146 °C. For `CCCCCS(=O)(=O)NC(=O)/C(=C/c1ccc(OCCOC)cc1Oc1ncc(C(F)(F)F)cc1Cl)CC` the value was 104 to 106 °C; for `O=c1[nH]c2ccc(Cl)cc2n2ccnc12`, greater than 300 °C.

As to `CCc1oc(-c2ccc(C(F)(F)F)cc2)cc1C=O`, the melting point lay within 95 to 96 °C.
